This is an account of results in US20240383955A1, “MODIFIED ANTIMICROBIAL PEPTIDES” (priority 2021, published 2024).

The subject of one assay is B. cinerea. The assay is described as follows: In vitro antifungal activity (MIC) in SFM culture media, with or without added salts.
For assay [1], the system named is B. cinerea, F. graminearum, F. oxysporum and P. capsici. The assay is classed as cell-based. Particulars: in vitro, low cationic conditions; for antifungal activity relative to the wild-type GMA4C_AC control: against B. cinerea, F. graminearum, F. oxysporum and P. capsici.
A further assay relates to C. parapsilosis. The assay is described as follows: MIC by CLSI M27/M38 methodology. Particulars: C. parapsilosis isolate ATCC 22019; Table 8. The assay is classed as cell-based, Candida parapsilosis. The protocol:
(§1) Testing for antifungal activity used half-strength potato dextrose broth for peptides and RPMI for comparator antifungals fluconazole and voriconazole. CLSI M27 and M38 methodologies used for to measure MICs. Minimal Inhibitory Concentration (MIC) is the concentration of the compound, protein, or peptide at which there is no significant growth of the microorganism relative to the growth of the microorganism in growth medium lacking the compound, protein, or peptide.
(§2) […] The concentration range for peptides in potato dextrose broth was 0.06-2 mcg/ml, the concentration range for fluconazole was 0.125-64 mcg/ml, and the concentration range for voriconazole was 0.03-16 mcg/ml. MICs were determined at 24-72 hours.

A further assay has as its system Aspergillus fumigatus. In words: MIC by CLSI M27/M38 methodology. Particulars: Table 8. The assay is classed as cell-based. The protocol:
as §1, §2

For another assay, the system named is Candida albicans. The assay is described as follows: MIC by CLSI M27/M38 methodology. The assay is classed as cell-based. Particulars: Table 8. Here is the method:
as §1, §2

In a further assay the test system is Candida auris. In words: MIC by CLSI M27/M38 methodology. The assay is classed as cell-based. Particulars: Table 8. The protocol: as §1, §2
A further assay has as its system Fusarium (F. oxysporum). The assay is described as follows: MIC by CLSI M27/M38 methodology. The assay is classed as cell-based. Particulars: Table 8. Here is the method:
as §1, §2

A further assay concerns Fusarium (F. solani). The assay is described as follows: MIC by CLSI M27/M38 methodology. The assay is classed as cell-based. The settings on record: Fusarium isolate F4 (F. solani); Table 8. Here is the method: as §1, §2
The next assay has as its system Coccidioides sp. The assay is classed as cell-based. Particulars: Table 8.
Setting [2] is: Aspergillus fumigatus isolate AF293.
[3] abbreviates: Aspergillus fumigatus isolate DI15-106.
Where [4] appears, read: Aspergillus fumigatus isolate DI15-116.
Where [5] appears, read: Candida albicans isolate ATCC 90028.
Where [6] appears, read: Candida albicans isolate SC5314.
Where [7] appears, read: Fusarium isolate F1 (F. oxysporum).
Where [8] appears, read: Fusarium isolate F2 (F. oxysporum).
[9] abbreviates: Coccidioides sp. isolate Cocci1.
[10] abbreviates: Coccidioides sp. isolate Cocci2.
Where [11] appears, read: Coccidioides sp. isolate DI17-143.

In brackets after ≈: the same amount, converted by molar mass. Where two headings read alike, the source gives them in different places. Square brackets hold non-standard residues; d marks the D form. Peptide text beside a SMILES is read from it. Dab = NCC[C@H](N)C(=O)O

Take `C[C@@H](O)[C@H](NC(=O)[C@H](CS)NC(=O)[C@H](Cc1ccccc1)NC(=O)[C@H](CS)NC(=O)[C@H](CCCNC(=N)N)NC(=O)[C@H](CCCNC(=N)N)NC(=O)[C@H](CCCNC(=N)N)NC(=O)[C@H](Cc1ccccc1)NC(=O)CNC(=O)[C@H](CCCNC(=N)N)NC(=O)[C@H](CS)NC(=O)[C@H](CCCNC(=N)N)NC(=O)CN)C(=O)N[C@H](C(=O)N[C@@H](Cc1c[nH]cn1)C(=O)N[C@@H](CS)C(=O)O)[C@@H](C)O` [GMA4AC] (H-GRCRGFRRRCFCTTHC-OH; N-terminus and C-terminus assumed): in the assay on F. graminearum, the “MIC Fusarium graminearum” value came out at 6 µM (≈ 11.8 µg/mL).
For `C[C@@H](O)[C@H](NC(=O)[C@H](CS)NC(=O)[C@H](Cc1ccccc1)NC(=O)[C@H](CS)NC(=O)[C@H](CCCNC(=N)N)NC(=O)[C@H](CCCNC(=N)N)NC(=O)[C@H](CCCNC(=N)N)NC(=O)[C@H](Cc1ccccc1)NC(=O)CNC(=O)[C@H](CCCNC(=N)N)NC(=O)[C@H](CS)NC(=O)[C@H](CCCNC(=N)N)NC(=O)CNC(=O)CN)C(=O)N[C@H](C(=O)N[C@@H](Cc1c[nH]cn1)C(=O)N[C@@H](CS)C(N)=O)[C@@H](C)O` [GMA4C_AC] (H-GGRCRGFRRRCFCTTHC-NH2; N-terminus assumed), in the assay on F. graminearum, the “F. graminearum MIC” value worked out at 3 µM, the “MIC Fusarium graminearum” value was determined as 3 µM (≈ 6.05 µg/mL) and the “MIC Values against F. graminearum” value amounted to 6 µM (≈ 12.1 µg/mL). In addition, the “SFM + 2 mM CaCl2 MIC” value with B. cinerea (SFM + 2 mM CaCl2, Table 10) is recorded as >6 (a few μM.
As for `CC[C@H](C)[C@H](NC(=O)[C@H](CCCNC(=N)N)NC(=O)[C@@H](NC(=O)[C@H](CS)NC(=O)[C@H](Cc1ccccc1)NC(=O)[C@H](CS)NC(=O)[C@H](CCCNC(=N)N)NC(=O)[C@H](CCCNC(=N)N)NC(=O)[C@H](CCCNC(=N)N)NC(=O)[C@H](Cc1ccccc1)NC(=O)CNC(=O)[C@H](CCCNC(=N)N)NC(=O)[C@H](CS)NC(=O)[C@H](CCCNC(=N)N)NC(=O)CNC(=O)CN)[C@@H](C)O)C(=O)N[C@@H](CS)C(N)=O` [GMA4C_V2A] (H-GGRCRGFRRRCFCTRIC-NH2; N-terminus assumed), the “reduction in antifungal activity relative to the wild-type GMA4C_AC control” value in assay [1] (against B. cinerea and F. graminearum) is given as “two-fold reduction”. The “MIC, 100%” value in the assay on C. parapsilosis is 8 µg/mL (≈ 3.91 µM); against Aspergillus fumigatus (setting [2]) it was 32 µg/mL (≈ 15.6 µM); with Aspergillus fumigatus (setting [3]), greater than 32 µg/mL; with Aspergillus fumigatus (setting [4]) it was greater than 32 µg/mL; in the assay on Candida albicans (setting [5]), 16 µg/mL (≈ 7.82 µM); in the assay with Candida albicans (Candida albicans isolate CA3), 16 µg/mL (≈ 7.82 µM). In addition, the “MIC, 100%” value in the assay on Candida albicans (setting [6]) turned out to be 16 µg/mL (≈ 7.82 µM); against Candida auris (Candida auris isolate DI17-46), 16 µg/mL (≈ 7.82 µM); with Candida auris (Candida auris isolate DI17-47), 16 µg/mL (≈ 7.82 µM); against Candida auris (Candida auris isolate DI17-48), 16 µg/mL (≈ 7.82 µM); in the assay with Fusarium (F. oxysporum) (setting [7]) it was 8 µg/mL (≈ 3.91 µM); in the assay with Fusarium (F. oxysporum) (setting [8]) it was 16 µg/mL (≈ 7.82 µM). In addition, the “MIC, 100%” value came out at 8 µg/mL (≈ 3.91 µM) in the assay on Fusarium (F. solani), 8 µg/mL (≈ 3.91 µM) with Coccidioides sp. (setting [9]), 16 µg/mL (≈ 7.82 µM) against Coccidioides sp. (setting [10]) and 16 µg/mL (≈ 7.82 µM) in the assay on Coccidioides sp. (setting [11]).
`N=C(N)NCCC[C@H](NC(=O)CNC(=O)[C@@H](N)Cc1ccccc1)C(=O)N[C@@H](CS)C(=O)N[C@@H](CCCNC(=N)N)C(=O)NCC(=O)N[C@@H](Cc1ccccc1)C(=O)N[C@@H](CCCNC(=N)N)C(=O)N[C@@H](CCCNC(=N)N)C(=O)N[C@@H](CCCNC(=N)N)C(=O)N[C@@H](CS)C(=O)N[C@@H](Cc1ccccc1)C(=O)N[C@@H](CS)C(=O)N[C@@H](Cc1c[nH]c2ccccc12)C(=O)N[C@@H](CCCNC(=N)N)C(=O)N[C@@H](Cc1c[nH]c2ccccc12)C(=O)N[C@@H](CS)C(N)=O` [GMA4C_V4A] (H-FGRCRGFRRRCFCWRWC-NH2; N-terminus assumed): in assay [1], the “antifungal activity relative to the wild-type GMA4C_AC control” value is given as “equivalent to the wild-type GMA4C_AC control”. The “MIC, 100%” value against C. parapsilosis amounted to 8 µg/mL (≈ 3.49 µM); against Aspergillus fumigatus (setting [2]), 16 µg/mL (≈ 6.97 µM); in the assay on Aspergillus fumigatus (setting [3]), 16 µg/mL (≈ 6.97 µM); against Aspergillus fumigatus (setting [4]), 32 µg/mL (≈ 13.9 µM); against Candida albicans (setting [5]), 8 µg/mL (≈ 3.49 µM); against Candida albicans (Candida albicans isolate CA3) it was 8 µg/mL (≈ 3.49 µM). In addition, the “MIC, 100%” value against Candida albicans (setting [6]), with Candida auris (Candida auris isolate DI17-46), against Candida auris (Candida auris isolate DI17-47), with Candida auris (Candida auris isolate DI17-48), with Fusarium (F. oxysporum) (setting [7]) and in the assay on Fusarium (F. oxysporum) (setting [8]) was 8 µg/mL (≈ 3.49 µM) in each case. Besides, the “MIC, 100%” value in the assay with Fusarium (F. solani) turned out to be 8 µg/mL (≈ 3.49 µM); in the assay with Coccidioides sp. (setting [9]), 4 µg/mL (≈ 1.74 µM); in the assay with Coccidioides sp. (setting [10]), 16 µg/mL (≈ 6.97 µM); against Coccidioides sp. (setting [11]) it was 16 µg/mL (≈ 6.97 µM). The “fungal growth inhibition at 6 μM” value with B. cinerea (B. cinerea, in presence of 2 mM CaCl2, peptide 6 μM) was “inhibit fungal growth”. Besides, in the assay with B. cinerea (B. cinerea, in presence of 100 mM NaCl or 100 mM KCl), the “potency of antifungal activity relative to GMA4C_AC” value is listed as 2 fold.
Take `NCC[C@H](NC(=O)CNC(=O)[C@@H](N)Cc1ccccc1)C(=O)N[C@@H](CS)C(=O)N[C@@H](CCN)C(=O)NCC(=O)N[C@@H](Cc1ccccc1)C(=O)N[C@@H](CCN)C(=O)N[C@@H](CCN)C(=O)N[C@@H](CCN)C(=O)N[C@@H](CS)C(=O)N[C@@H](Cc1ccccc1)C(=O)N[C@@H](CS)C(=O)N[C@@H](Cc1c[nH]c2ccccc12)C(=O)N[C@@H](CCN)C(=O)N[C@@H](Cc1c[nH]c2ccccc12)C(=O)N[C@@H](CS)C(N)=O` [GMA4C_V5A, FG(Dab)C(Dab)GF(Dab)(Dab)(Dab)CFCW(Dab)WC-NH2] (H-FG[Dab]C[Dab]GF[Dab][Dab][Dab]CFCW[Dab]WC-NH2; N-terminus assumed): the “antifungal activity relative to the wild-type GMA4C_AC control” value in [1] was “equivalent to the wild-type GMA4C_AC control”. For the same compound, the “MIC, 100%” value was 8 µg/mL (≈ 4.08 µM) with C. parapsilosis; 32 µg/mL (≈ 16.3 µM) against Aspergillus fumigatus (setting [2]); greater than 32 µg/mL in the assay with Aspergillus fumigatus (setting [3]); greater than 32 µg/mL with Aspergillus fumigatus (setting [4]); 16 µg/mL (≈ 8.17 µM) in the assay with Candida albicans (setting [5]); 8 µg/mL (≈ 4.08 µM) in the assay with Candida albicans (Candida albicans isolate CA3). Moreover, the “MIC, 100%” value with Candida albicans (setting [6]) came out at 16 µg/mL (≈ 8.17 µM); in the assay on Candida auris (Candida auris isolate DI17-46), 16 µg/mL (≈ 8.17 µM); with Candida auris (Candida auris isolate DI17-47), 16 µg/mL (≈ 8.17 µM); in the assay on Candida auris (Candida auris isolate DI17-48), 16 µg/mL (≈ 8.17 µM); against Fusarium (F. oxysporum) (setting [7]), 8 µg/mL (≈ 4.08 µM); against Fusarium (F. oxysporum) (setting [8]), 16 µg/mL (≈ 8.17 µM). Further, the “MIC, 100%” value came to 8 µg/mL (≈ 4.08 µM) with Fusarium (F. solani), 2 µg/mL (≈ 1.02 µM) in the assay with Coccidioides sp. (setting [9]), 16 µg/mL (≈ 8.17 µM) in the assay with Coccidioides sp. (setting [10]) and 16 µg/mL (≈ 8.17 µM) in the assay on Coccidioides sp. (setting [11]).
